The results in this text go back to publication PMC4879574, “Identification of Leishmania donovani Topoisomerase 1 inhibitors via intuitive scaffold hopping and bioisosteric modification of known Top 1 inhibitors” (Scientific Reports, 2016).

SMILES strings stand for the structures. Like-named read-outs stand apart in the source and are kept apart here.

One experiment concerns the target T1, Human Top1 (HTop1) (Homo sapiens, UniProt P11387).
T1 construct: made in house; host or cells: Sf-9 insect cells infected with recombinant baculovirus (gift from Prof. J. J. Champoux)
T1 sequence (P11387 1-765): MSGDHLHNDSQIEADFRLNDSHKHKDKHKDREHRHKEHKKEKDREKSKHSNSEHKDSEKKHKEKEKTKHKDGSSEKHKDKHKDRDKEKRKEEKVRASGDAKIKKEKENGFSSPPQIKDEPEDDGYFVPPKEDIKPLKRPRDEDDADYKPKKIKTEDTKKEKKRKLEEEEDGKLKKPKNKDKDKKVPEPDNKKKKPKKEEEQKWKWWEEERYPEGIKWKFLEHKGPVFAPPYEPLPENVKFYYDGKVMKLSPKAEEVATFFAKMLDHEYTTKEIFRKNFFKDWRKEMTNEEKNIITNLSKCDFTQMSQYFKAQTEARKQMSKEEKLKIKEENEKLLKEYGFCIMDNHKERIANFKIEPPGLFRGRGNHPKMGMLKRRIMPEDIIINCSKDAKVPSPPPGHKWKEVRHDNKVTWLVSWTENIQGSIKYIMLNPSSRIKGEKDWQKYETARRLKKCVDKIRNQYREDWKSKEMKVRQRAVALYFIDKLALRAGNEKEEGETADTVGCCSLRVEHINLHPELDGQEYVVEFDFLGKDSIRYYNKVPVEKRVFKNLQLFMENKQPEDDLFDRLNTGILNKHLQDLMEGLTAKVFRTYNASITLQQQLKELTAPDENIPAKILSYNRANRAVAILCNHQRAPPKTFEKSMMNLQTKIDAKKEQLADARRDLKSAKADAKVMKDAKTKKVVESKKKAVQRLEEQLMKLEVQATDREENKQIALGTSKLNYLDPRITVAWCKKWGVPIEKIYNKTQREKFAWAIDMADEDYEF
The experiment is described as follows: Plasmid DNA relaxation assay, HTop1. It is filed as biochemical. Conditions: averages of three experiments, read-out: HTop1 inhibition (EC50). The procedure:
(§1) To investigate the inhibitory effect of our library compounds on the DNA relaxation activity of the recombinant Human and Leishmania topoisomerase 1 (Table 2), assays were performed involving supercoiled plasmid DNA, the enzymes (HTop1 and LdTop1) and our molecules. The enzymes were purified by the standard literature procedure.
(§2) The type I DNA topoisomerase are assayed by decreased mobility of the relaxed isomers of supercoiled pBS (SK^+) [pBlue-script (SK^+)] DNA in agarose gel. The relaxation assay was carried out as described previously with LdTop1B and HTop I, diluted in the relaxation buffer (25 mM Tris–HCl, pH 7.5, 5% glycerol, 0.5 mM DTT, 10 mM MgCl2, 50 mM KCl, […] and […] BSA) and supercoiled plasmid pBS (SK^+) DNA (85–95% were negatively supercoiled, with remainder being nicked circles)[9][28][29]. The reconstituted enzyme LdTop1B was assayed at 50 mM KCl concentration as described before. For all kinetic studies, the reaction mixtures containing the buffer and DNA were heated to 37 °C before addition of the enzymes. The reactions were rapidly quenched using stop solution and kept on ice. The gels were stained with ethidium bromide (EtBr) ([…]) and the amount of supercoiled monomer DNA band fluorescence were quantified by integration using Gel Doc 2000 under UV illumination (Bio-Rad Quantity One Software), as described previously.
The wild-type HTop1 (91 kDa) was purified from Sf-9 insect cells infected with the recombinant baculovirus (a kind gift from Prof. J. J. Champoux). Approximately, 1 * 10^9 Sf-9 cells were infected with the recombinant virus, and cells were harvested after 48-h of infection. The cells were lysed and enzyme was purified as described. Briefly, at 48 h post-infection, approximately 3 * 10^9 Sf-9 cells were harvested by centrifugation for 5 min at 400 * g. The cells were resuspended in 1 liter of ice-cold phosphate-buffered saline and centrifuged for 5 min at 400 * g. The nuclei were washed twice in 80 ml of lysis buffer minus Triton X-100 and resuspended in 40 ml of resuspension buffer (50 mM KCl, 10 mM Tris-Cl, pH 7.5, 2 mM MgCl2, 25 mM DTT, 0.4 mg/ml phenylmethylsulfonyl fluoride, 0.12 mg/ml aprotinin). The nuclear extract was stirred for 5 min at ~200 rpm. With continued stirring, 50 ml of polyethylene glycol (PEG) buffer (18% PEG 8000, 1 M NaCl, 10% glycerol) was added dropwise in order to precipitate the DNA. The PEG precipitate was pelleted by centrifugation and the resulting PEG supernatant was dialyzed against 4 liters of potassium phosphate buffer. The dialyzed PEG supernatant passed over a 10-ml bed volume of phosphocellulose (Whatman P11) equilibrated with PPB. The HTop1 flowed through the PS column and then passed over a Mono Q column followed by loaded onto a Mono S column. The Mono S column was eluted with a 25-ml 50–200 mM KPO4, pH 7.4, gradient. […] The peak Mono S fractions were pooled, concentrated with an Amicon ultrafiltration cell, dialyzed into storage buffer (50% glycerol, 10 mM Tris-hydrochloride, pH 7.5, 1 mM DTT, 1 mM EDTA), and stored at −20 °C.

The target in experiment [1] is Leishmania donovani Topoisomerase 1 (LdTop1) (Leishmania donovani, UniProt A0A3Q8IHS4+Q8WQM6). Kind of experiment: Plasmid DNA relaxation assay, LdTop1 (simultaneous incubation). The format is biochemical. The procedure: as §1
Leishmania donovani Topoisomerase 1 (LdTop1), sequence (Q8WQM6 entry or part of it): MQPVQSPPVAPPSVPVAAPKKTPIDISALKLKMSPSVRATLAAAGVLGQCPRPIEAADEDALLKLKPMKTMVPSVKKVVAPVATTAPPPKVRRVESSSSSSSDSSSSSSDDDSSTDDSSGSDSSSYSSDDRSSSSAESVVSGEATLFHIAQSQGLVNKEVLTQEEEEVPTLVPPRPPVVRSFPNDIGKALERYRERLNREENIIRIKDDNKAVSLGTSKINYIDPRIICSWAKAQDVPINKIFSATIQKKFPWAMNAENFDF
Leishmania donovani Topoisomerase 1 (LdTop1), sequence (A0A3Q8IHS4 entry or part of it): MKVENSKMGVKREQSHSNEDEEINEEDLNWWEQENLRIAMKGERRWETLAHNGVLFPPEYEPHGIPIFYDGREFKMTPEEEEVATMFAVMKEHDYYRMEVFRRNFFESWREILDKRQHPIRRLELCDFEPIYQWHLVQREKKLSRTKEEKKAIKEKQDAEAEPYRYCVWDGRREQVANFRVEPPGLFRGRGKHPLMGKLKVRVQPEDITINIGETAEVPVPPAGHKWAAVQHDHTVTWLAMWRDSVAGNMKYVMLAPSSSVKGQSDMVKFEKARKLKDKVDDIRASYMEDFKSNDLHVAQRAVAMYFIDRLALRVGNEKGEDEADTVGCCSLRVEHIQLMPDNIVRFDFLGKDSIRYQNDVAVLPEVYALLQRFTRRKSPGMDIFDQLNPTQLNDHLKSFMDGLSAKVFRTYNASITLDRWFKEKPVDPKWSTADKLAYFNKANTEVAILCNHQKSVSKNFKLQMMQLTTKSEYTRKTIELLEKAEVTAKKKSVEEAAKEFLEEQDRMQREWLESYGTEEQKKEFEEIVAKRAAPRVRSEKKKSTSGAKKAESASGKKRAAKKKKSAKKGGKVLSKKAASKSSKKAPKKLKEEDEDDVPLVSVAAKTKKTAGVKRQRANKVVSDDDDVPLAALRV
All the experiments were conducted thrice and representative data from once set of them are expressed as mean ± SD.
as §2
Cells harvested from 1 litre of culture were separately lysed by lysozyme/sonication, and the proteins were purified through Ni-NTA (Ni^2+-nitriloacetate-agarose column (Qiagen, Hilden, Germany) followed by a phospho-cellulose column (P11 cellulose; Whatman, Maidstone Kent, UK) as described previously. Finally, the purified proteins LdTOP1L and LdTOP1S were stored at −70 °C. The concentrations of each protein were quantified by using Bradford Reagent (PIERCE, Thermo Fisher Scientific Inc., Rockford, USA). Purified LdTOP1L was mixed with purified LdTOP1S at a molar ratio of 1:1 to a total protein concentration of 0.5 mg/ml in reconstitution buffer [50 mM potassium phosphate, pH 7.5, 0.5 mM DTT, 1 mM EDTA, 0.1 mM PMSF and 10% (v/v) glycerol]. The mixture was dialyzed overnight at 4 °C and dialyzed fractions were used for plasmid relaxation activity.

In experiment [2] the test system is L. donovani AG83 promastigotes. The experiment is described as follows: MTT assay on extracellular promastigotes. It is filed as cell-based. Particulars: Leishmania donovani, 12 h, read-out: Anti-promastigote activity IC50. The procedure: Next, compound 4 was screened against extracellular promastigotes.
L. donovani AG83 promastigotes (3.0 × 10^6 cells/ml) are incubated with different concentrations of drugs/compounds under study (1, 2, 5, 10 and 20 μM) for 12 h, following which the survival percentage is estimated by MTT assay. Yellow MTT (3-(4,5-dimethylthiazol- 2-yl)-2,5-diphenyltetrazolium bromide, a tetrazole) is reduced to purple formazan in the mitochondria of living cells. The formazan is then solubilized, and the concentration is determined by optical density at 570 nm. Metabolically active cells convert MTT to formazan, thereby generating a quantitative measure of viability and cytotoxicity. Percentage of viable promastigotes in each treatment groups are determined with respect to untreated control cells.

[3] abbreviates: LdTop1 relaxation, 12.5 uM, read-out: % inhibition, mean data.
Where [4] appears, read: LdTop1 relaxation, 25 uM, read-out: % inhibition, mean data.
[5] abbreviates: LdTop1 relaxation, 50 uM, read-out: % inhibition, mean data.
Where [6] appears, read: LdTop1 relaxation, 100 uM, read-out: % inhibition, mean data.
[7] abbreviates: plasmid DNA relaxation, averages of three experiments, read-out: LDTop1 inhibition (EC50).
Where [8] appears, read: read-out: % inhibition (CPT 100%), data 1, LdTop1 relaxation, 12.5 uM.
The mark [9] stands for this setting: read-out: % inhibition (CPT 100%), data 1, LdTop1 relaxation, 25 uM.
Setting [10] is: read-out: % inhibition (CPT 100%), data 1, LdTop1 relaxation, 50 uM.
[11] abbreviates: read-out: % inhibition (CPT 100%), data 1, LdTop1 relaxation, 100 uM.
The mark [12] stands for this setting: read-out: % inhibition (CPT 100%), data 2, LdTop1 relaxation, 12.5 uM.
The mark [13] stands for this setting: read-out: % inhibition (CPT 100%), data 2, LdTop1 relaxation, 25 uM.
Setting [14] is: read-out: % inhibition (CPT 100%), data 2, LdTop1 relaxation, 50 uM.
Setting [15] is: read-out: % inhibition (CPT 100%), data 2, LdTop1 relaxation, 100 uM.
Where [16] appears, read: supplement sheet Ld Top 1 data, concentrations in uM, read-out: EC50 (LdTop1, supplement sheet).

Consider `Cc1cc2c(c(=O)[nH]1)C(=O)O/C2=C\c1ccccc1C(F)(F)F` [Compound 3], for which the figures for the EC50 (on Human Top1 (HTop1); in experiment [1] (setting [7]); in experiment [1] (setting [16])) were > 100 µM, 9.06 ± 1.77 µM and 9.06 µM, respectively. Moreover, the inhibition at 12.5 µM turned out to be 52.5% in experiment [1] (setting [3]), 51.2% in experiment [1] (setting [8]) and 53.7% in experiment [1] (setting [12]). Besides, the inhibition at 25 µM was found to be 67.3% in experiment [1] (setting [4]), 68.8% in experiment [1] (setting [9]) and 65.8% in experiment [1] (setting [13]). Also, the inhibition at 50 µM stood at 87.5% in experiment [1] (setting [5]), 88.7% in experiment [1] (setting [10]) and 86.2% in experiment [1] (setting [14]). In addition, the inhibition at 100 µM in experiment [1] (setting [6]) worked out at 91.3%; in experiment [1] (setting [11]) it was 93.7%; in experiment [1] (setting [15]) it was 88.9%. For the same molecule, the “LdTop1 inhibitory activity” value in experiment [1] (plasmid DNA relaxation) is reported as “considerable activity”.

Take `Cc1cc2c(c(=O)[nH]1)C(=O)O/C2=C\c1cccc(I)c1` [Compound 15]: the values for the EC50 (on Human Top1 (HTop1); in experiment [1] (setting [7]); in experiment [1] (setting [16])) were > 100 µM, 17.4 ± 1.86 µM and 17.4 µM, respectively. The inhibition at 12.5 µM is 42.1% in experiment [1] (setting [3]), 41.1% in experiment [1] (setting [8]) and 43.1% in experiment [1] (setting [12]). Also, the inhibition at 25 µM in experiment [1] (setting [4]) stood at 55.3%; in experiment [1] (setting [9]), 53.2%; in experiment [1] (setting [13]), 57.3%. Besides, in experiment [1] (LdTop1 relaxation, 50 uM), the “% inhibition (CPT 100%), data 2” value came to 74.2517%. Further, the figures for the inhibition at 50 µM in experiment [1] (setting [5]), in experiment [1] (setting [10]) and in experiment [1] (setting [14]) were 75.2%, 76.2% and 74.3%, respectively. Also, the values for the inhibition at 100 µM in experiment [1] (setting [6]), in experiment [1] (setting [11]) and in experiment [1] (setting [15]) were 91.7%, 93% and 90.5%, respectively. The “LdTop1 inhibitory activity” value in experiment [1] (plasmid DNA relaxation) is “considerable activity”.

Regarding `Cc1cc2c(c(=O)[nH]1)C(=O)O/C2=C\c1ccc(Cl)cc1` [Compound 17], the EC50 (at Human Top1 (HTop1); in experiment [1] (setting [7])) was > 100 µM each time.

In the case of `COc1ccc(/C=C2\OC(=O)c3c2cc(C)[nH]c3=O)cc1` [Compound 19], the EC50 (at Human Top1 (HTop1); in experiment [1] (setting [7])) was > 100 µM each time.

For `Cc1cc2c(c(=O)[nH]1)C(=O)O/C2=C\c1ccc(I)cc1` [Compound 18], the EC50 (on Human Top1 (HTop1); in experiment [1] (setting [7])) was > 100 µM each time.

As for `CCCCCCCCCCCCCCCCOP(=O)([O-])OCC[N+](C)(C)C` [miltefosine, reference compound], the half-inhibitory concentration (IC50) in experiment [2] is ~1 µM.

The EC50 is the concentration that produces a half-maximal response. As a reminder, the inhibition is the percentage by which the read-out fell short of the control. Broadly, the IC50 is the concentration at which inhibition is half-maximal.
